Laboratory results published in article PMC10786919, “Design-rules for stapled peptides with in vivo activity and their application to Mdm2/X antagonists” (Nature Communications, 2024).
In brackets after ≈: the same amount, converted by molar mass. Like-named read-outs stand apart in the source and are kept apart here. Positions of bridges follow the written chain, without caps; N, C: chain ends. Non-standard residues stand in square brackets, D forms with d. Residues, ends and D or L forms follow the SMILES beside them. ξ: configuration not given here. Lys(N3) = [N-]=[N+]=NCCCC[C@H](N)C(=O)O; R8 = C=CCCCCCC[C@@](C)(N)C(=O)O; ξαMeF = CC(N)(Cc1ccccc1)C(=O)O; Cba = N[C@@H](CC1CCC1)C(=O)O; S5 = C=CCCC[C@](C)(N)C(=O)O; hSer = N[C@@H](CCO)C(=O)O; Aib = CC(C)(N)C(=O)O; βAla = NCCC(=O)O

Assays:
in vitro = conditions: Nanoclick permeability assay EC50
How it was run: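 Azido-peptide permeability was read as loss of NanoBRET signal (donor 450 nm, acceptor 610 nm) after adding NanoBret618-azide at 10 μM final.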

[1] = Lactate dehydrogenase (LDH) release assay; format: cell-based
How it was run: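 A p53 β-lactamase reporter HCT116 line, 8000 cells per well, is exposed to test compounds at 0.5% final DMSO and scored for LDH leakage.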

[2] = system: CellSensor p53RE-bla HCT-116 Cell Line; conditions: 72 h
Description: (§1) The medium for CellSensor™ p53RE-bla HCT-116 cells was McCoy’s 5 A Medium (GIBCO16600-002) supplied with 10% FBS (Hyclone, SH30406.05), 100 U/100ug/ml of Pen/Strep (SolarBio, P1400) and 5 μg/ml of blasticidin (GIBCO, A11139). The medium for Ca Ski cells was RPMI1640 (Hyclone, SH3080901B) supplied with 10% FBS and 100 U/100ug/ml of Pen/Strep. All cells were kept in humidified incubators with 5% CO2 at 37 °C. Culture media was changed after one day of subculturing and cells were passed again when there was 70–80% confluence. One day before the assay, the cells were trypsinized, collected, counted and viability was determined. […] The plates were kept in humidified incubators with 5% CO2 at 37 °C overnight. Compounds were prepared as a 10 point, 3x serial dilution in 100% DMSO, starting from a top concentration of 10 mM. […] At the end of the incubation the assay plate was equilibrated at room temperature for approximately 30 minutes prior to the addition of 25 uL of CellTiter-Glo® 2.0 Reagent. The assay plate was mixed for 2 minutes on an orbital shaker to induce cell lysis. Next, the plate was incubated at room temperature for 10 minutes to stabilize the luminescent signal prior to recording the luminescence on a plate reader.

Ca Ski cell line = conditions: 72 h
Description: as §1

[3] = Experimental LogD (partition coefficient); conditions: for logD: not stated, Partition Coeff LogD
[4] = Solubility assay (kinetic solubility, PBS pH 7); format: physicochemical
How it was run: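 Reference standards were made by diluting the 10 mM stock to 100 µM in acetonitrile:methanol:DMSO 10:80:10. Solubility in µM was calculated as the sample peak area divided by the standard peak area, multiplied by the standard concentration.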

[5] = pH 7, aqueous buffer, kinetic from dmso stock, pH 7, PBS, read-out: Solubility

| SMILES | cell entry EC50 (in vitro) [µM] | EC50 ([1]; LDH: Cytotoxicity assay EC50) [µM] | EC50 [2] [µM] | EC50 (Ca Ski cell line) [µM] | logD [3] | solubility kinetic [4, 5] [µM] | Partition Coeff LogD [3] | Solubility ([4]; pH 7, PBS) | EC50 ([1]; LDH: Cytotoxicity assay: EC50) [µM] | solubility kinetic ([4]; pH 7, Solubility) [µM] |
| --- | --- | --- | --- | --- | --- | --- | --- | --- | --- | --- |
| CC(=O)N[C@@H](CCCCN=[N+]=[N-])C(=O)NCCC(=O)N[C@@H](CC(C)C)C(=O)N[C@H](C(=O)N[C@@H](Cc1ccccc1)C(=O)N[C@]1(C)CCCCCCC=CCCC[C@@](C)(C(=O)N[C@@H](CCC(=O)O)C(=O)N[C@@H](C)C(=O)N[C@@H](Cc2ccccc2)C(=O)N[C@@H](C)C(=O)N[C@@H](CCC(N)=O)C(=O)N[C@@H](Cc2ccccc2)C(N)=O)NC(=O)[C@H](CC2CCC2)NC(=O)[C@H](CCC(N)=O)NC(=O)[C@H](C)NC(=O)[C@H](Cc2c[nH]c3ccccc23)NC(=O)[C@H](Cc2ccc(O)cc2)NC(=O)[C@H](CCC(=O)O)NC1=O)[C@@H](C)O [MP-832] (Ac-[Lys(N3)][βAla]LTF[R8]EYWAQ[Cba][S5]EAFAQF-NH2; staple 6-13) | 4.88 | > 50.7 | 4.17 | 22.3 | 3.01 | 157 (≈ 382 µg/mL) | – | – | – | – |
| CC(=O)N[C@@H](CCCCN=[N+]=[N-])C(=O)NCCC(=O)N[C@@H](CC(C)C)C(=O)N[C@H](C(=O)N[C@@H](Cc1ccccc1)C(=O)N[C@]1(C)CCCCCCC=CCCC[C@@](C)(C(=O)N[C@@H](C)C(=O)N[C@@H](CC(C)C)C(=O)N[C@@H](C)C(=O)N[C@@H](C)C(=O)N[C@@H](C)C(=O)N[C@H](C)C(N)=O)NC(=O)[C@H](CC2CCC2)NC(=O)[C@H](CCC(N)=O)NC(=O)[C@H](C)NC(=O)[C@H](Cc2c[nH]c3ccccc23)NC(=O)[C@H](Cc2ccc(O)cc2)NC(=O)[C@H](CCC(=O)O)NC1=O)[C@@H](C)O [MP-968] (Ac-[Lys(N3)][βAla]LTF[R8]EYWAQ[Cba][S5]ALAAA[dA]-NH2; staple 6-13) | 4.2 | > 50.7 | 1.41 | 43.1 | – | – | Poorly Behaved | Poorly Behaved | – | – |
| CC(=O)N[C@@H](CCCCN=[N+]=[N-])C(=O)NCCC(=O)N[C@@H](CC(C)C)C(=O)N[C@H](C(=O)N[C@@H](Cc1ccccc1)C(=O)N[C@]1(C)CCCCCCC=CCCC[C@@](C)(C(=O)N[C@@H](C)C(=O)N[C@@H](C)C(=O)N[C@@H](C)C(=O)N[C@@H](C)C(=O)N[C@@H](C)C(=O)N[C@@H](CCC(=O)O)C(N)=O)NC(=O)[C@H](CC2CCC2)NC(=O)[C@H](CCC(N)=O)NC(=O)[C@H](C)NC(=O)[C@H](Cc2c[nH]c3ccccc23)NC(=O)[C@H](Cc2ccc(O)cc2)NC(=O)[C@H](CCC(=O)O)NC1=O)[C@@H](C)O [MP-836] (Ac-[Lys(N3)][βAla]LTF[R8]EYWAQ[Cba][S5]AAAAAE-NH2; staple 6-13) | 1.77 | > 50.7 | 1.05 | > 49.8 | 2.43 | 164 (≈ 365 µg/mL) | – | – | – | – |
| CC(=O)N[C@@H](CCCCN=[N+]=[N-])C(=O)NCCC(=O)N[C@@H](CC(C)C)C(=O)N[C@H](C(=O)N[C@@H](Cc1ccccc1)C(=O)N[C@]1(C)CCCCCCC=CCCC[C@@](C)(C(=O)N[C@@H](C)C(=O)N[C@@H](C)C(=O)N[C@@H](C)C(=O)N[C@@H](C)C(=O)N[C@@H](CCC(=O)O)C(=O)N[C@H](C)C(N)=O)NC(=O)[C@H](CC2CCC2)NC(=O)[C@H](CCC(N)=O)NC(=O)[C@H](C)NC(=O)[C@H](Cc2c[nH]c3ccccc23)NC(=O)[C@H](Cc2ccc(O)cc2)NC(=O)[C@H](CCC(=O)O)NC1=O)[C@@H](C)O [MP-837] (Ac-[Lys(N3)][βAla]LTF[R8]EYWAQ[Cba][S5]AAAAE[dA]-NH2; staple 6-13) | 1.52 | > 50.7 | 0.66 | > 49.8 | 2.53 | 160 (≈ 356 µg/mL) | – | – | – | – |
| CC(=O)N[C@@H](CCCCN=[N+]=[N-])C(=O)NCCC(=O)N[C@@H](CC(C)C)C(=O)N[C@H](C(=O)N[C@@H](Cc1ccccc1)C(=O)N[C@]1(C)CCCCCCC=CCCC[C@@](C)(C(=O)N[C@@H](C)C(=O)N[C@@H](C)C(=O)N[C@@H](Cc2ccccc2)C(=O)NC(C)(C)C(=O)N[C@@H](C)C(=O)N[C@@H](C)C(N)=O)NC(=O)[C@H](CC2CCC2)NC(=O)[C@H](CCC(N)=O)NC(=O)[C@H](C)NC(=O)[C@H](Cc2c[nH]c3ccccc23)NC(=O)[C@H](Cc2ccc(O)cc2)NC(=O)[C@H](CCC(=O)O)NC1=O)[C@@H](C)O [MP-801] (Ac-[Lys(N3)][βAla]LTF[R8]EYWAQ[Cba][S5]AAF[Aib]AA-NH2; staple 6-13) | 4.71 | – | 4.58 | 19.1 | – | – | Poorly Behaved | Poorly Behaved | – | – |
| CC(=O)N[C@@H](CCCCN=[N+]=[N-])C(=O)NCCC(=O)N[C@@H](CC(C)C)C(=O)N[C@H](C(=O)N[C@@H](Cc1ccccc1)C(=O)N[C@]1(C)CCCCCCC=CCCC[C@@](C)(C(=O)N[C@@H](C)C(=O)N[C@@H](C)C(=O)N[C@@H](C)C(=O)N[C@@H](C)C(=O)N[C@@H](C)C(=O)N[C@@H](C)C(=O)N[C@@H](C)C(=O)N[C@@H](C)C(=O)N[C@@H](C)C(N)=O)NC(=O)[C@H](CC2CCC2)NC(=O)[C@H](CCC(N)=O)NC(=O)[C@H](C)NC(=O)[C@H](Cc2c[nH]c3ccccc23)NC(=O)[C@H](Cc2ccc(O)cc2)NC(=O)[C@H](CCC(=O)O)NC1=O)[C@@H](C)O [MP-759] (Ac-[Lys(N3)][βAla]LTF[R8]EYWAQ[Cba][S5]AAAAAAAAA-NH2; staple 6-13) | 3.41 | – | 2.44 | 25.9 | 3.49 | 15 (≈ 35.7 µg/mL) | – | – | > 50.7 | – |
| CC(=O)N[C@@H](CCCCN=[N+]=[N-])C(=O)NCCC(=O)N[C@@H](CC(C)C)C(=O)N[C@H](C(=O)N[C@@H](Cc1ccccc1)C(=O)N[C@]1(C)CCCCCCC=CCCC[C@@](C)(C(=O)N[C@@H](C)C(=O)N[C@@H](CCO)C(=O)N[C@@H](C)C(=O)N[C@@H](C)C(=O)N[C@@H](C)C(=O)N[C@H](C)C(N)=O)NC(=O)[C@H](CC2CCC2)NC(=O)[C@H](CCC(N)=O)NC(=O)[C@H](C)NC(=O)[C@H](Cc2c[nH]c3ccccc23)NC(=O)[C@H](Cc2ccc(O)cc2)NC(=O)[C@H](CCC(=O)O)NC1=O)[C@@H](C)O [MP-831] (Ac-[Lys(N3)][βAla]LTF[R8]EYWAQ[Cba][S5]A[hSer]AAA[dA]-NH2; staple 6-13) | > 10 | > 50.7 | 0.428 | > 49.8 | 3.13 | 175 (≈ 385 µg/mL) | – | – | – | – |
| CC(=O)N[C@@H](CCCCN=[N+]=[N-])C(=O)NCCC(=O)N[C@@H](CC(C)C)C(=O)N[C@H](C(=O)N[C@@H](Cc1ccccc1)C(=O)N[C@]1(C)CCCCCCC=CCCC[C@@](C)(C(=O)N[C@@H](CO)C(=O)N[C@@H](CCC(=O)O)C(=O)N[C@@H](C)C(N)=O)NC(=O)[C@H](CC2CCC2)NC(=O)[C@H](CCC(N)=O)NC(=O)[C@H](C)NC(=O)[C@H](Cc2c[nH]c3ccccc23)NC(=O)[C@H](Cc2ccc(O)cc2)NC(=O)[C@H](CCC(=O)O)NC1=O)[C@@H](C)O [MP-898] | 0.808 | – | 7.5 | > 49.8 | 2.4 | 145 (≈ 294 µg/mL) | – | – | > 50.7 | – |
| CC(=O)N[C@@H](CCCCN=[N+]=[N-])C(=O)NCCC(=O)N[C@@H](CC(C)C)C(=O)N[C@H](C(=O)N[C@@H](Cc1ccccc1)C(=O)N[C@]1(C)CCCCCCC=CCCC[C@@](C)(C(=O)N[C@@H](C)C(=O)N[C@H](C)C(=O)N[C@@H](C)C(=O)N[C@H](C)C(=O)N[C@@H](C)C(=O)N[C@H](C)C(N)=O)NC(=O)[C@H](CC2CCC2)NC(=O)[C@H](CCC(N)=O)NC(=O)[C@H](C)NC(=O)[C@H](Cc2c[nH]c3ccccc23)NC(=O)[C@H](Cc2ccc(O)cc2)NC(=O)[C@H](CCC(=O)O)NC1=O)[C@@H](C)O [MP-056] (Ac-[Lys(N3)][βAla]LTF[R8]EYWAQ[Cba][S5]A[dA]A[dA]A[dA]-NH2; staple 6-13) | 5.21 | – | 3.3 | > 49.8 | 2.83 | 147 (≈ 319 µg/mL) | – | – | > 50.7 | 157 (≈ 340 µg/mL) |
| CC(=O)N[C@@H](CCCCN=[N+]=[N-])C(=O)NCCC(=O)N[C@@H](CC(C)C)C(=O)N[C@H](C(=O)N[C@@H](Cc1ccccc1)C(=O)N[C@]1(C)CCCCCCC=CCCC[C@@](C)(C(=O)N[C@@H](C)C(=O)N[C@@H](C)C(=O)N[C@@H](Cc2ccccc2)C(=O)N[C@@H](C)C(=O)N[C@@H](C)C(=O)NC(C)(Cc2ccccc2)C(N)=O)NC(=O)[C@H](CC2CCC2)NC(=O)[C@H](CCC(N)=O)NC(=O)[C@H](C)NC(=O)[C@H](Cc2c[nH]c3ccccc23)NC(=O)[C@H](Cc2ccc(O)cc2)NC(=O)[C@H](CCC(=O)O)NC1=O)[C@@H](C)O (stereo partly drawn) [MP-288] (Ac-[Lys(N3)][βAla]LTF[R8]EYWAQ[Cba][S5]AAFAA[ξαMeF]-NH2; staple 6-13) | 1.58 | – | 2.74 | > 49.8 | 4.11 | 12 (≈ 28 µg/mL) | – | – | > 50.7 | – |
